Converted amounts (≈) assume the structure as drawn.
Columns and labels:
[1] = Cytotoxicity against human C8166 cells by MTT assay; type: cell-based
[2] = test system: Human immunodeficiency virus 1; experiment: Antiviral activity against HIV1 infected in human C8166 cells assessed as inhibition of viral-induced cytopathic effect; type: functional, organism-based; conditions: Human immunodeficiency virus 1, C8166

`C=C(C)[C@@H]1CC[C@@H]2[C@]3(CC[C@]4(C)[C@@H]([C@H](C)CC/C=C(/C)C(=O)O)CC[C@@]24C)C[C@]13CCC(=O)O` [NIGRANOIC ACID] gave a CC50 [1] of 88 µg/mL (≈ 187 µM) and an EC50 [2] of 10.3 µg/mL (≈ 21.9 µM).

In the case of `Cc1cn([C@H]2C[C@H](N=[N+]=[N-])[C@@H](CO)O2)c(=O)[nH]c1=O` [ZIDOVUDINE], the CC50 [1] is reported as over 200 µg/mL.

For `C/C(=C/CC[C@@H](C)[C@H]1CC[C@@]2(C)[C@@H]3CC[C@@H](C(C)(C)O)[C@@]4(CCC(=O)O)C[C@@]34CC[C@]12C)C(=O)O` [LANCIFOICACID A], the CC50 [1] was 105 µg/mL (≈ 215 µM) and the EC50 [2] was 16.2 µg/mL (≈ 33.1 µM).

For `C[C@@H]1CCC(=O)O[C@@H]2C[C@@]3(C)[C@@H]4[C@@H](O)C[C@H]5C(C)(C)C(=O)CC[C@@]56C[C@@]46C[C@@H](O)[C@]3(C)[C@@H]12` [LANCIFODILACTONE H], the CC50 [1] was over 200 µg/mL and the EC50 [2] was 16.6 µg/mL (≈ 37.3 µM).
